Reference: patent US8846643B2, “Phosphonates with reduced toxicity for treatment of viral infections” (The Regents of the University of California, priority 2010, dated 2014)
Like-named read-outs stand apart in the source and are kept apart here.

Key:
[1] = system: HCV genotype 1b replicon (BM4-5); test: anti-HCV activity in genotype 1b replicon (BM4-5); type: cell-based, hepatitis C virus; conditions: for EC50: Hepatitis C virus; for Selectivity Index BM4-5 (1b): genotype 1b replicon
[2] = system: HCV genotype 2a replicon (JFH-1); test: anti-HCV activity in genotype 2a replicon (JFH-1); type: cell-based, hepatitis C virus; conditions: for EC50: Hepatitis C virus, read-out: EC50 (μM) JFH-1 (2a); for Selectivity Index JFH-1 (2a): genotype 2a replicon
MT-2 cells = test: cytotoxicity in MT-2 cells; conditions: MT-2 cells
HIV-1 [3] = test: microbe, parasite or virus in culture
Huh 7.5 cells = test: cytotoxicity (CC50) in HCV replicon cells / Huh 7.5 liver cells; conditions: cytotoxicity in replicon cells
[4] = target: HIV-1 reverse transcriptase (Human immunodeficiency virus type 1 group M subtype B, UniProt P04585); test: HIV reverse transcriptase assay with primer-template pairs; type: biochemical; conditions: HIV-1 reverse transcriptase 50 nM, 37° C., 5 min
Method: (S)-MPMPA diphosphate was prepared as described in Example 56. Radiolabeled [γ-^32P]ATP and cordycepin triphosphate ([α-^32P]3′-deoxyATP) was purchased from PerkinElmer, and unlabeled deoxynucleoside triphosphates (dNTPs) were from Fermentas. RNA oligonucleotides were purchased from Sigma.
Oligonucleotide primer-template pairs were used as substrates for reverse transcriptase assays. Reverse transcriptase assays utilized RNA oligonucleotide templates. The primers were first end-labeled by using [γ-^32P]ATP and T4 polynucleotide kinase prior to annealing to the template strand. Various combinations of dNTPs and (S)-MPMPApp were added. […] After incubation of controls and (S)-MPMPA at 37° C. for 5 min, reaction mixtures were stopped by the addition of gel loading buffer [80% (v/v) formamide, 10 mM EDTA (pH 8.0), 1 mg/ml xylene cyanol FF, 1 mg/ml bromophenol blue]. Reaction products were resolved on 10% polyacrylamide gels and analyzed by phosphorimager analysis as previously described (Magee et al., 2005) using a Typhoon 9400 phosphorimager.).

HIV-1 [5] = conditions: for anti-HIV activity (in words): HIV-1 infected MT-2 cells; for Selectivity Index: MT-2 cells, HIV-1
HIV-1NL43 = test: HIV-1 replication in human peripheral blood mononuclear cells; type: cell-based; conditions: for activity against HIV-1 in human PBMCs (in words): HIV-1 infected human PBMCs
[6] = cytotoxicity in human PBMCs
[7] = antiviral activity and cytotoxicity of unmodified MPMPA (system not stated)
[8] = BM4-5, read-out: EC50 (μM) BM4-5(1b)
[9] = BM4-5, read-out: EC50 values, range
[10] = Human immunodeficiency virus 1, MT2
[11] = Human immunodeficiency virus 1, MT2, MT-2 cells infected with HIV-1

| SMILES | EC50 [1, 8] [µM] | EC50 [2] [µM] | CC50 (MT-2 cells) [µM] | EC50 (HIV-1 [3]; [10]) [µM] | CC50 (Huh 7.5 cells) [µM] | anti-HIV activity (in words) (HIV-1 [5]) | EC50 (HIV-1 [3]; [11]) [µM] | other results |
| --- | --- | --- | --- | --- | --- | --- | --- | --- |
| CCCCCCCCCCCCCCCCOCCCOP(=O)(O)CO[C@H](COC)Cn1cnc2c(OC)nc(N)nc21 [Cmpd 44, Hexadecyloxypropyl (S)-9-[(3-methoxy-2-phosphonomethoxy)propyl]-6-O-methylguanine] | 18.1 ± 0.27 | 17.4 ± 0.3 | 34.3 ± 7.6 | > 10 | > 150 | – | – | EC50 [1, 9]: 18 to 26 µM |
| CCCCCCCCCCCCCCCCOCCCOP(=O)(O)CO[C@H](COC)Cn1cnc2c(OC)ncnc21 [Cmpd 43, Hexadecyloxypropyl (S)-9-[(3-methoxy-2-phosphonomethoxy)propyl]-6-methoxypurine] | 8.9 ± 1.22 | 12.5 ± 3.36 | 22 ± 3.5 | > 10 | > 150 | – | – | EC50 [1, 9]: 8.9 to 12.5 µM |
| COC[C@H](Cn1cnc2c(N)ncnc21)OCP(=O)(O)OP(=O)(O)OP(=O)(O)O [(S)-MPMPA diphosphate] | – | – | – | – | – | – | – | inhibition of HIV reverse transcriptase activity (in words) [4]: inhibited HIV reverse transcriptase activity by chain termination |
| CCCCCCCCCCCCCCCCCCOCCOP(=O)(O)CO[C@@H](COC)Cn1cnc2c(N)nc(N)nc21 [Cmpd 24, Octadecyloxyethyl (R)-9-[(3-methoxy-2-phosphonomethoxy)propyl]2,6-diaminopurine] | 25.6 ± 4.23 | 25.8 ± 6.1 | 19.7 ± 9.5 | – | > 150 | – | – | – |
| CCCCCCCCCCCCCCCCCCOCCOP(=O)(O)CO[C@@H](COC)Cn1cnc2c(=O)[nH]c(N)nc21 [Cmpd 35, Octadecyloxyethyl (R)-9-[(3-methoxy-2-phosphonomethoxy)propyl]guanine] | 12.6 | 12.4 | 44 | < 1e-05 | > 150 | – | – | Selectivity Index BM4-5 (1b) [1]: >11.9; Selectivity Index JFH-1 (2a) [2]: >12.1 |
| CCCCCCCCCCCCCCCCOCCCOP(=O)(O)COC(COCC)Cn1cnc2c(N)ncnc21 (racemic) [Cmpd 18, hexadecyloxypropyl 9-(R,S)-[3-ethoxy-2-(phosphonomethoxy)propyl]adenine] | 7.59 | 8.87 | 23.6 ± 7.1 | – | 99 ± 0.5 | loss of antiviral activity | > 10 | – |
| CCCCCCCCCCCCCCCCOCCCOP(=O)(O)COC(COCC)Cn1cnc2c(N)nc(N)nc21 (racemic) [Cmpd 26, Hexadecyloxypropyl (R,S)-9-[3-ethoxy-2-phosphonomethoxy)propyl-2,6-diaminopurine] | 18.2 ± 7.09 | 19.5 ± 1.48 | 30.7 ± 11.7 | – | > 150 | large loss of anti-HIV activity | > 10 | Selectivity Index BM4-5 (1b) [1]: >8.2; Selectivity Index JFH-1 (2a) [2]: >7.69 |
| CCCCCCCCCCCCCCCCCCOCCOP(=O)(O)CO[C@@H](COC)Cn1cnc2c(N)ncnc21 [Cmpd 16, Octadecyloxyethyl (R)-9-[(3-methoxy-2-phosphonomethoxy)propyl]adenine] | 4.65 | 5.33 | – | – | > 150 | considerably less active and selective | 4.8 ± 3 | – |
| CCCCCCCCCCCCCCCCOCCCOP(=O)(O)CO[C@H](COC)Cn1cnc2c(=O)[nH]c(N)nc21 [Cmpd 36] | 22 ± 4.97 | 24.8 ± 7 | 29.3 ± 3.1 | 2.03 ± 0.95 | > 150 | less active | – | activity against HIV-1 in human PBMCs (in words) (HIV-1NL43; listed as HDP-(S)-MPMPG): active and selective; activity against HIV-1 in human PBMCs (in words) (HIV-1NL43; listed as hexadecyloxypropyl-(S)-MPMPG): submicromolar activity; CC50 [6]: > 100 µM |
| COC[C@H](Cn1cnc2c(N)ncnc21)OCP(=O)(O)O [MPMPA, 9-(S)-[3-methoxy-2-(phosphonomethoxy)propyl]adenine] | – | – | – | – | – | – | – | CC50 ([7]; cells not given): 40 µM; EC50 ([7]; virus and cells not stated): 20 µM |
| CCCCCCCCCCCCCCCCOCCCOP(=O)(O)CO[C@H](COC)Cn1cnc2c(N)nc(N)nc21 [Cmpd 25] | 21.3 ± 3.1 | 23.6 ± 2.7 | 22.7 ± 6.8 | – | 91.5 ± 17.8 | less active | 4.6 ± 1.8 | – |
| CCCCCCCCCCCCCCCCOCCCOP(=O)(O)COC(COCC)Cn1cnc2c(=O)[nH]c(N)nc21 (racemic) [Cmpd 37, Hexadecyloxypropyl (R,S)-9-[3-ethoxy-2-phosphonomethoxy)propyl]guanine] | 25.5 ± 10.4 | 13.2 ± 3.45 | 14.9 ± 6.7 | – | > 150 | large loss of anti-HIV activity | > 10 | Selectivity Index BM4-5 (1b) [1]: >5.88; Selectivity Index JFH-1 (2a) [2]: >11.4 |
| CCCCCCCCCCCCCCCCOCCCOP(=O)(O)COC(COC(C)C)Cn1cnc2c(N)ncnc21 (racemic) [Cmpd 19, hexadecyloxypropyl 9-(R,S)-[3-isopropoxy-2-(phosphonomethoxy)propyl]adenine] | 51.2 ± 38.2 | 98.8 ± 20.8 | 30.3 ± 12.5 | – | 100 ± 20.8 | loss of antiviral activity | > 10 | – |
| CCCCCCCCCCCCCCCCOCCCOP(=O)(O)CO[C@H](COC)Cn1cnc2c(N)ncnc21 [Cmpd 17] | 2.36 | 4.64 | 32 ± 11 | 0.2 ± 0.26 | > 150 | less active | – | activity against HIV-1 in human PBMCs (in words) (HIV-1NL43): active and selective; EC50 (HIV-1NL43; Human immunodeficiency virus 1, PBMC, HIV-1NL43 in human PBMCs): 0.2 µM; CC50 [6]: > 10 µM |
| CCCCCCCCCCCCCCCCCCOCCOP(=O)(O)CO[C@H](COC)Cn1ccc(N)nc1=O [Cmpd 40, Octadecyloxyethyl (S)-1-[(3-methoxy-2-phosphonomethoxy)propyl]cytosine] | > 150 | > 150 | 60.7 ± 16 | 12.7 | > 150 | – | – | anti-HCV activity (in words) ([1]; HCV replication in vitro): inactive; activity against HIV-1 in human PBMCs (in words) (HIV-1NL43): antiviral activity; Selectivity Index (HIV-1 [5]): 4.8 |
| CCCCCCCCCCCCCCCCCCOCCOP(=O)(O)CO[C@H](COC)Cn1cnc2c(N)nc(N)nc21 [Cmpd 23, Octadecyloxyethyl (S)-9-[(3-methoxy-2-phosphonomethoxy)propyl]2,6-diaminopurine] | 20.1 ± 1.98 | 21.4 ± 1.3 | 18 ± 5.3 | – | 99 ± 13.4 | – | 0.23 ± 0.15 | – |
| CCCCCCCCCCCCCCCCCCOCCOP(=O)(O)CO[C@H](COC)Cn1cnc2c(=O)[nH]c(N)nc21 [Cmpd 34, Octadecyloxyethyl (S)-9-[(3-methoxy-2-phosphonomethoxy)propyl]guanine] | 8.26 | 10.7 | 25 ± 13 | 0.2 | – | – | – | Selectivity Index BM4-5 (1b) [1]: >18.2; Selectivity Index JFH-1 (2a) [2]: >14.0; Selectivity Index (HIV-1 [5]): 125 |
